Laboratory results: article PMC4022547 (Molecular Brain, 2014)
Like-named read-outs stand apart in the source and are kept apart here.

Columns and labels:
hα6 + hβ4 nAChR [1] = molecular target: T1, hα6 + hβ4 nAChR (Homo sapiens, UniProt P30926+Q15825); set-up: method as in Kuryatov et al. (2000) [29]; details: ref Kuryatov et al. (2000) [29]; cited from earlier work
hα6 + hβ4 + hβ3 nAChR [2] = molecular target: T2, hα6 + hβ4 + hβ3 nAChR (Homo sapiens, UniProt P30926+Q15825); set-up: method as in PMID 11044728; details: ref [29]; cited from earlier work
hα6 + hβ4 + hβ3 nAChR [3] = molecular target: T2, hα6 + hβ4 + hβ3 nAChR; assay: Oocyte two-electrode voltage clamp; type: cell-based
Description: (§1) We planned to introduce identical amounts of cRNA, presumably producing equal amounts of each subunit protein, into oocytes largely due to lack of information about the levels of mRNA for each subunits that compose α6*-nAChRs in neurons or other cells. Concentrations of cRNAs for each nAChR α and β subunits (WT, mutant or variant) were adjusted to 500 ng μL^−1. We provisionally assumed that hα6 or its variants in association with hβ2 or hβ4 subunits would form complexes having 2:3 and/or 3:2 ratios of the indicated subunits and that oocytes also injected with WT or mutant form of β3 subunits (i.e., β3^V9’S) would express nAChR with 2:2:1 ratios of α:β:(β3 or β3^V9’S) subunits. For expression of binary nAChRs (i.e., two subunit containing nAChRs; α + β but not β3) cRNA mixtures were prepared by mixing 1 μL of cRNA for each subunit and an additional μL of RNAse free water (i.e., total volume 3 μL). Similarly for expression of ternary nAChRs [i.e., three subunit containing nAChRs; (α + β) + (β3 or β3^V9’S)] cRNA mixtures were prepared by mixing 1 μL of cRNA for each subunit. Several preparations of each mixture were prepared and stored at −80°C until further use. Injection of 138 nL of cRNA, out of 3 μL cRNA mixtures, into each oocyte would deliver ~23 ng of cRNA for each subunit whether binary or ternary nAChRs are expressed.
(§2) Two to 5 days after injection, oocytes were placed in a small-volume chamber and continuously perfused with OR2. The chamber was grounded through an agarose bridge. The oocytes were voltage-clamped at −70 mV (unless otherwise noted) to measure agonist or antagonist induced currents using Axoclamp 900A and pClamp 10.2 software (Molecular Devices, Sunnyvale, CA). The current signal was low-pass filtered at 10 Hz with the built-in low-pass Bessel filter in the Axoclamp 900A and digitized at 20 Hz with Axon Digidata1440A and pClamp10. […] Drugs (agonists and antagonists) were prepared daily in OR2. Drug was applied using a Valvelink 8.2 perfusion system (Automate scientific, Berkeley, CA). […] Then for the purpose of comparison electrophysiological recordings were performed in a given day in a given batch of oocytes following the same order of injections. […] All hβ4*-nAChR recordings were done in similar conditions to facilitate comparisons between hα6hβ4- and hα6hβ4hβ3-nAChRs. All electrophysiological measurements were conducted or checked in at least two batches of oocytes.
(§3) Raw data was collected and processed in part using pClamp 10.2 (Molecular Devices, Sunnyvale, CA), Origin 7.5 (OriginLab Corporation, Northampton, MA) and a spreadsheet (Excel; Microsoft, Bellevue, WA). Peak current amplitudes (Imax) are reported as mean ± SEM (for results from at least three oocytes, i.e., n = 3).

[4] = molecular target: hα6(S233C) + hβ4 + hβ3 nAChR (Homo sapiens, UniProt P30926+Q15825, S233C); assay: Oocyte two-electrode voltage clamp; type: cell-based
Description: as §1, §2, §3

[5] = molecular target: T3, hα6(R87C) + WT hβ2 + hβ3^V9’S nAChR (Homo sapiens, UniProt P17787+Q15825, R87C); assay: Oocyte two-electrode voltage clamp; type: cell-based
T3 construct: Full length capped mRNA (i.e., cRNA) was transcribed from linearized plasmids; expressed in transfected cells; host or cells: Xenopus laevis oocytes injected with cRNA
Description: as §1, §2, §3

[6] = molecular target: hα6(A184D) + hβ4 + hβ3 nAChR (Homo sapiens, UniProt P30926+Q15825, A184D); assay: Oocyte two-electrode voltage clamp; type: cell-based
Description: as §1, §2, §3

hα6(A184D) + hβ4 nAChR = hα6(A184D) + hβ4 nAChR (Homo sapiens, UniProt P30926+Q15825, A184D); assay: Oocyte two-electrode voltage clamp; type: cell-based
Description: as §1, §2, §3

hα6(S233C) + hβ4 nAChR = hα6(S233C) + hβ4 nAChR (Homo sapiens, UniProt P30926+Q15825, S233C); assay: Oocyte two-electrode voltage clamp; type: cell-based
Description: as §1, §2, §3

hα6(D199Y) + hβ4 nAChR = hα6(D199Y) + hβ4 nAChR (Homo sapiens, UniProt P30926+Q15825, D199Y); assay: Oocyte two-electrode voltage clamp; type: cell-based
Description: as §1, §2, §3

[7] = molecular target: T4, hα6(R96H) + hβ4 + hβ3 nAChR (Homo sapiens, UniProt P30926+Q15825, R96H); assay: Oocyte two-electrode voltage clamp; type: cell-based
T4 construct: Full length capped mRNA (i.e., cRNA) was transcribed from linearized plasmids; expressed in transfected cells; host or cells: Xenopus laevis oocytes injected with cRNA
Description: as §1, §2, §3

hα6 + hβ4 nAChR [8] = molecular target: T1, hα6 + hβ4 nAChR; assay: Oocyte two-electrode voltage clamp; type: cell-based
Description: as §1, §2, §3

hα6(R96H) + hβ4 nAChR = molecular target: T5, hα6(R96H) + hβ4 nAChR (Homo sapiens, UniProt P30926+Q15825, R96H); assay: Oocyte two-electrode voltage clamp; type: cell-based
T5 construct: Full length capped mRNA (i.e., cRNA) was transcribed from linearized plasmids; expressed in transfected cells; host or cells: Xenopus laevis oocytes injected with cRNA
Description: as §1, §2, §3

[9] = molecular target: hα6(D199Y) + hβ4 + hβ3 nAChR (Homo sapiens, UniProt P30926+Q15825, D199Y); assay: Oocyte two-electrode voltage clamp; type: cell-based
Description: as §1, §2, §3

[10] = 100 μM nicotine, oocytes clamped at −70 mV

Sequence of hα6(D199Y) + hβ4 nAChR (Q15825 26-494 D199Y): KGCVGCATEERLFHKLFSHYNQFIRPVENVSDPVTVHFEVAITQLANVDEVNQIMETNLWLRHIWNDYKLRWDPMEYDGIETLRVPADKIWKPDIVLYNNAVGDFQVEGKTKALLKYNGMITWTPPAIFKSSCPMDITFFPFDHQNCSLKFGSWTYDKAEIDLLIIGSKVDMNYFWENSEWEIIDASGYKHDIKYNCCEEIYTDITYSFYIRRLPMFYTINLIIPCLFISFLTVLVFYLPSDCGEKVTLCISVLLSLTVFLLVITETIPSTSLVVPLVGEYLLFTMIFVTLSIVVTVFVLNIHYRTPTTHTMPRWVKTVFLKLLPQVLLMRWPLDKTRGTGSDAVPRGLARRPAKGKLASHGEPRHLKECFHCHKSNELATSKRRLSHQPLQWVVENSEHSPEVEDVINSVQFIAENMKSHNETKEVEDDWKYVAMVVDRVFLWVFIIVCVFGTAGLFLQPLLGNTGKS
Sequence of hα6(D199Y) + hβ4 nAChR (P30926 22-498): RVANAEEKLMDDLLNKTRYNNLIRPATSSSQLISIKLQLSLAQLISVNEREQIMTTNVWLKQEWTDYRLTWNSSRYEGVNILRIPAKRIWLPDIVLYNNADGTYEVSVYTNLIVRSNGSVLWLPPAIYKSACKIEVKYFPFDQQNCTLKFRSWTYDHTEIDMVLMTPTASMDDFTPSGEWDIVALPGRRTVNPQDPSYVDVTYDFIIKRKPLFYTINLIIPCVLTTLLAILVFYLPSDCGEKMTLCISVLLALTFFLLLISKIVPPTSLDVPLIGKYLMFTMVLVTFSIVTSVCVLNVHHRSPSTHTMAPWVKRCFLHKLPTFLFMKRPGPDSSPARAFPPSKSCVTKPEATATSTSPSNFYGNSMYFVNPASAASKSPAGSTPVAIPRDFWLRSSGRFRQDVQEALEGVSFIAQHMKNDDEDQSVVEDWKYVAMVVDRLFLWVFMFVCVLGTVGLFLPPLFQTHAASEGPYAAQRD
Sequence of hα6(D199Y) + hβ4 + hβ3 nAChR (Q15825 26-494 D199Y): as the sequence (Q15825 26-494 D199Y) above
Sequence of hα6(D199Y) + hβ4 + hβ3 nAChR (P30926 22-498): as the sequence (P30926 22-498) above
Sequence of hα6(D199Y) + hβ4 + hβ3 nAChR (Q05901 25-458 partner limits assumed): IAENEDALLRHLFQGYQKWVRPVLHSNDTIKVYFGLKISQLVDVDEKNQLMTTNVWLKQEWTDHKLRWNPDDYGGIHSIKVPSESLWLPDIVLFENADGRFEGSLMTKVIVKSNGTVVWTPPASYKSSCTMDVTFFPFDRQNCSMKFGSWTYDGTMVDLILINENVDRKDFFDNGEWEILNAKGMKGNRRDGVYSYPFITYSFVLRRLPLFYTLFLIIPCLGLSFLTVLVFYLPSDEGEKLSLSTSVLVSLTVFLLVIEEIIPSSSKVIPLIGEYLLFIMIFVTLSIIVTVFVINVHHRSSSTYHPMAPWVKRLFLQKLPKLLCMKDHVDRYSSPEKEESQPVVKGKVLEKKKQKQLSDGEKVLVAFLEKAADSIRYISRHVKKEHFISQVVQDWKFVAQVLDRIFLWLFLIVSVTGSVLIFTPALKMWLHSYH
Sequence of hα6(S233C) + hβ4 + hβ3 nAChR (Q15825 26-494 S233C): as the sequence (Q15825 26-494 D199Y) above, with Y174D, S208C counted along it
Sequence of hα6(S233C) + hβ4 + hβ3 nAChR (P30926 22-498): as the sequence (P30926 22-498) above
Sequence of hα6(S233C) + hβ4 + hβ3 nAChR (Q05901 25-458 partner limits assumed): as the sequence (Q05901 25-458 partner limits assumed) above
Sequence of hα6(S233C) + hβ4 nAChR (Q15825 26-494 S233C): as the sequence (Q15825 26-494 D199Y) above, with Y174D, S208C counted along it
Sequence of hα6(S233C) + hβ4 nAChR (P30926 22-498): as the sequence (P30926 22-498) above
T1 sequence (Q15825 26-494): as the sequence (Q15825 26-494 D199Y) above, with Y174D counted along it
T1 sequence (P30926 22-498): as the sequence (P30926 22-498) above
T2 sequence (Q15825 26-494): as the sequence (Q15825 26-494 D199Y) above, with Y174D counted along it
T2 sequence (P30926 22-498): as the sequence (P30926 22-498) above
T2 sequence (Q05901 25-458 partner limits assumed): as the sequence (Q05901 25-458 partner limits assumed) above
T4 sequence (Q15825 26-494 R96H): as the sequence (Q15825 26-494 D199Y) above, with R71H, Y174D counted along it
T4 sequence (P30926 22-498, stated change not applied): as the sequence (P30926 22-498) above
T4 sequence (Q05901 25-458 partner limits assumed): as the sequence (Q05901 25-458 partner limits assumed) above
Sequence of hα6(A184D) + hβ4 nAChR (Q15825 26-494 A184D): as the sequence (Q15825 26-494 D199Y) above, with A159D, Y174D counted along it
Sequence of hα6(A184D) + hβ4 nAChR (P30926 22-498): as the sequence (P30926 22-498) above
Sequence of hα6(A184D) + hβ4 + hβ3 nAChR (Q15825 26-494 A184D): as the sequence (Q15825 26-494 D199Y) above, with A159D, Y174D counted along it
Sequence of hα6(A184D) + hβ4 + hβ3 nAChR (P30926 22-498): as the sequence (P30926 22-498) above
Sequence of hα6(A184D) + hβ4 + hβ3 nAChR (Q05901 25-458 partner limits assumed): as the sequence (Q05901 25-458 partner limits assumed) above
T3 sequence (Q15825 26-494 R87C): as the sequence (Q15825 26-494 D199Y) above, with R62C, Y174D counted along it
T3 sequence (P17787 26-502): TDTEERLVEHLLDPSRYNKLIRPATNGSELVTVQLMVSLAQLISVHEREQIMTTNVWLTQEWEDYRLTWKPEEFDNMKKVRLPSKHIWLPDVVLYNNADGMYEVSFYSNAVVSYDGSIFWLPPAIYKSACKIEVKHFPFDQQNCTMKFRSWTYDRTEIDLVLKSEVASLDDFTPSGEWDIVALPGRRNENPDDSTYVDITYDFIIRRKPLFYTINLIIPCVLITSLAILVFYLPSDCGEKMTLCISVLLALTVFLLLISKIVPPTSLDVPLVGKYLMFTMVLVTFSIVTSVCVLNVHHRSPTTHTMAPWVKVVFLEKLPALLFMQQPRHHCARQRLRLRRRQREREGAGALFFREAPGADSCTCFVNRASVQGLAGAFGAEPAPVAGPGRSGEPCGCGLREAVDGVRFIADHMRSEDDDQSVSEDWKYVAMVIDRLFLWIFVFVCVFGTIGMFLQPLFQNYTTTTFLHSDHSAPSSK
T3 sequence (Q05901 25-458 V273S partner limits assumed): as the sequence (Q05901 25-458 partner limits assumed) above, with V249S counted along it
T5 sequence (Q15825 26-494 R96H): as the sequence (Q15825 26-494 D199Y) above, with R71H, Y174D counted along it
T5 sequence (P30926 22-498, stated change not applied): as the sequence (P30926 22-498) above

CN1CCC[C@H]1c1cccnc1 [nicotine, L-nicotine]
EC50 (hα6 + hβ4 nAChR [1]): 7.1 µM | EC50 (hα6 + hβ4 + hβ3 nAChR [2]): 10 ± 3 µM | EC50 (hα6 + hβ4 + hβ3 nAChR [3]): 12 µM | Imax conc. (concentration where maximal peak current achieved) (hα6 + hβ4 + hβ3 nAChR [3]): 100 µM | nH ± SE (Hill coefficient) (hα6 + hβ4 + hβ3 nAChR [3]): 1.5±0.45 | increase of peak current response relative to hα6hβ4-nAChRs (hα6 + hβ4 + hβ3 nAChR [3]; 100 μM nicotine): ~ 12 fold | Mean (±SE) peak current response (hα6 + hβ4 + hβ3 nAChR [3]; [10]): 407 ± 34 nA | EC50 [4]: 6.9 µM | Imax conc. (concentration where maximal peak current achieved) [4]: 100 µM | nH ± SE (Hill coefficient) [4]: 1.4±0.12 | Mean (±SE) peak current response [4, 10]: 536 ± 66 nA | current response ([5]; ACh, nicotine or atropine, hβ2 type not specified): not obtained | current response ([5]; nicotine): did not yield current responses | EC50 [6]: 4.9 µM | Imax conc. (concentration where maximal peak current achieved) [6]: 100 µM | nH ± SE (Hill coefficient) [6]: 1.1±0.11 | Mean (±SE) peak current response [6, 10]: 554 ± 108 nA | EC50 (hα6(A184D) + hβ4 nAChR): 2.7 µM | Imax conc. (concentration where maximal peak current achieved) (hα6(A184D) + hβ4 nAChR): 100 µM | nH ± SE (Hill coefficient) (hα6(A184D) + hβ4 nAChR): 1.1±0.15 | peak current (Imax, mean ± SE) (hα6(A184D) + hβ4 nAChR; [10]): 122 ± 12 nA | EC50 (hα6(S233C) + hβ4 nAChR): 6.2 µM | Imax conc. (concentration where maximal peak current achieved) (hα6(S233C) + hβ4 nAChR): 100 µM | nH ± SE (Hill coefficient) (hα6(S233C) + hβ4 nAChR): 1.4±0.13 | peak current (Imax, mean ± SE) (hα6(S233C) + hβ4 nAChR; [10]): 73 ± 20 nA | EC50 (hα6(D199Y) + hβ4 nAChR): 4.4 µM | Imax conc. (concentration where maximal peak current achieved) (hα6(D199Y) + hβ4 nAChR): 100 µM | nH ± SE (Hill coefficient) (hα6(D199Y) + hβ4 nAChR): 1.1±0.26 | peak current (Imax, mean ± SE) (hα6(D199Y) + hβ4 nAChR; [10]): 90 ± 11 nA | EC50 [7]: 8.2 µM | Imax conc. (concentration where maximal peak current achieved) [7]: 100 µM | nH ± SE (Hill coefficient) [7]: 1.2±0.13 | Mean (±SE) peak current response [7, 10]: 513 ± 42 nA | Imax conc. (concentration where maximal peak current achieved) (hα6 + hβ4 nAChR [8]): 100 µM | peak current (Imax, mean ± SE) (hα6 + hβ4 nAChR [8]; [10]): 35 ± 2 nA | Imax conc. (concentration where maximal peak current achieved) (hα6(R96H) + hβ4 nAChR): 100 µM | peak current (Imax, mean ± SE) (hα6(R96H) + hβ4 nAChR; [10]): 73 ± 10 nA | EC50 [9]: 11 µM | Imax conc. (concentration where maximal peak current achieved) [9]: 100 µM | nH ± SE (Hill coefficient) [9]: 1.5±0.42 | Mean (±SE) peak current response [9, 10]: 276 ± 47 nA
